Results as given in patent US20250215012A1, “IKZF2 DEGRADERS AND USES THEREOF” (REGENTS OF THE UNIVERSITY OF MICHIGAN, priority 2022, published 2025).

Tests used:
[1] = biological target: GST-tagged wild-type human CRBN protein (Homo sapiens (Human), UniProt Q96SW2); experiment: Cereblon Binding Assay (Cisbio Cereblon Binding Kit, TR-FRET); conditions: about 3 hours at room temperature
Protocol: (§1) The binding to cereblon (CRBN) is determined using the Cereblon Binding Kit (Cisbio, #64BDCRBNPEG) following the manufacturer's instruction. Briefly, serially diluted compounds are incubated with GST-tagged wild-type human CRBN protein, XL665-labelled Thalidomide and Europium Cryptate labelled GST antibody.
as §1, with “(CRBN) was” for “(CRBN) is”, “compounds were” for “compounds are”, “GST antibody at room temperature for about 3 hours.” for “GST antibody.”

IKZF2 [2] = biological target: T1, IKZF2 (Homo sapiens (Human), UniProt Q96SW2+Q9UKS7); experiment: IKZF2 HiBiT Assay (Jurkat-IKZF2-HiBiT cell line); assay type: cell-based; conditions: Jurkat-IKZF2-HiBiT cells, 24 hours; for DC50: read-out: HiBit assay degradation analysis DC50; for Dmax: read-out: HiBit assay degradation analysis Dmax
T1 sequence (Q9UKS7 whole entry): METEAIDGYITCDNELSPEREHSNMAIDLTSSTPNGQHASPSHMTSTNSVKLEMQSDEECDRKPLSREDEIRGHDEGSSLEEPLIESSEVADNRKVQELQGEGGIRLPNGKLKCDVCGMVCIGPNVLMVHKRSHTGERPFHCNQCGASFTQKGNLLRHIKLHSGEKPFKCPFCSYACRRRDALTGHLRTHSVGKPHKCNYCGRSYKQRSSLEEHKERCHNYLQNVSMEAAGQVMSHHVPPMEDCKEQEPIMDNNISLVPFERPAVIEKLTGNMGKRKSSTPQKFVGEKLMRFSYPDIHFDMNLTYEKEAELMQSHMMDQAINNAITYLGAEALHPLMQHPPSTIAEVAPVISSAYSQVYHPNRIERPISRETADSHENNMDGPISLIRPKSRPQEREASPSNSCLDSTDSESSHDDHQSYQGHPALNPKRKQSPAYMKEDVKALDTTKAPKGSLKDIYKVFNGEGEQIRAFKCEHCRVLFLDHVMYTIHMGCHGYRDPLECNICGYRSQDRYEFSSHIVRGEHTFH
T1 sequence (Q96SW2 whole entry): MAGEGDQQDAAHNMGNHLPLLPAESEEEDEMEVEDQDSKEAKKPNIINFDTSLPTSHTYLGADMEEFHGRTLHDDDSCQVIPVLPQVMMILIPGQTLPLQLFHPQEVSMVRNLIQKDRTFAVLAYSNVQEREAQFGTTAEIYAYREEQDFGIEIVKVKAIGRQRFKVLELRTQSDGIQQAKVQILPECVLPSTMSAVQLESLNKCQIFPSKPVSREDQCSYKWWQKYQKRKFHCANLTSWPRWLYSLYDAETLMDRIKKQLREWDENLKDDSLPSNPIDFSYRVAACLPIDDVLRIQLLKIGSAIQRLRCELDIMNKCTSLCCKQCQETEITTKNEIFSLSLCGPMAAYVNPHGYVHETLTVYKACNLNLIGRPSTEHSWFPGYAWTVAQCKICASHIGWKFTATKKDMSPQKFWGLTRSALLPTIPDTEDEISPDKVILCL
T1 sequence (Q16531 whole entry partner): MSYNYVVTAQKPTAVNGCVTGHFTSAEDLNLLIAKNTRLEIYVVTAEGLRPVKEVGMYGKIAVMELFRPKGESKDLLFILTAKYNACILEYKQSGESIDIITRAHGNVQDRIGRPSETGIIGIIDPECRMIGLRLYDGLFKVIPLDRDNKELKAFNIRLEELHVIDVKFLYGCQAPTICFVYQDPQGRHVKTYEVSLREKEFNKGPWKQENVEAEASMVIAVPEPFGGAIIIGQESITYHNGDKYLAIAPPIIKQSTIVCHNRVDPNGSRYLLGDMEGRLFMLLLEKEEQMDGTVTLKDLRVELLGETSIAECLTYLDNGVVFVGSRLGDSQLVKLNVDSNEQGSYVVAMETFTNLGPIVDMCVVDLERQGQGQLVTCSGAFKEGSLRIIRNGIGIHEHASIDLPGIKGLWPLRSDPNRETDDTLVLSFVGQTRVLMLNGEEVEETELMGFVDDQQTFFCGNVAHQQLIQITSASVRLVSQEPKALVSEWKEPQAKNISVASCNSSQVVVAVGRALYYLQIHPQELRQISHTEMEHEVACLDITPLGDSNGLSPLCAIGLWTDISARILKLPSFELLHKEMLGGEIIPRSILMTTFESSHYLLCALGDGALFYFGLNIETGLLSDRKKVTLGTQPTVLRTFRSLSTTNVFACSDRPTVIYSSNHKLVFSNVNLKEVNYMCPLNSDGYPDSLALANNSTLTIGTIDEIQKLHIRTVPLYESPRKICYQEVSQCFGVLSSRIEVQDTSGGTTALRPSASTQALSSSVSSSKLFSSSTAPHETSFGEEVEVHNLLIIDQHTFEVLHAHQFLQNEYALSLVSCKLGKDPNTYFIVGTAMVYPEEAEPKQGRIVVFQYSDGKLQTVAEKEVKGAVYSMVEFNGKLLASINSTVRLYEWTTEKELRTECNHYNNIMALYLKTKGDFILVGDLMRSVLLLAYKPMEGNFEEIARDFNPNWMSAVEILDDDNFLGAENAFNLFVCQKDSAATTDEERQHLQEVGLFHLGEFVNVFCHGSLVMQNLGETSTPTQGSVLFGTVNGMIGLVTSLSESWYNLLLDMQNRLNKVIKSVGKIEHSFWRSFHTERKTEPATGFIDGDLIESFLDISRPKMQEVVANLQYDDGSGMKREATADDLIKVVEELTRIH
Procedure, shortened: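 Jurkat cells carrying HiBiT-tagged IKZF2 were exposed to serially diluted compound for 24 h at 37 °C. Remaining IKZF2 was measured by Nano-Glo HiBiT lytic luminescence after 10-20 min at room temperature. Signal was normalized to DMSO, and IC50 came from a four-parameter variable-slope fit.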

IKZF2 [3] = biological target: T1, IKZF2; experiment: IKZF2 FACS Assay (Jurkat cells); assay type: cell-based; conditions: Jurkat cells, 24 hrs; read-out: IKZF2 FACS degradation Dmax
Protocol: (§2) Jurkat cells (ATCC, Cat […]) were cultured in RPMI1640+10% FBS+1% P/S. Cells were treated at desired compound concentrations (0.05 to 10 μM) and DMSO as vehicle control for 24 hrs.

IKZF2 [4] = biological target: IKZF2 (Homo sapiens (Human), UniProt Q9UKS7); experiment: IKZF2 FACS Assay (Jurkat cells); assay type: cell-based; conditions: Jurkat cells, 24 hrs; read-out: IKZF2 FACS degradation DC50
Sequence of IKZF2 (Homo sapiens (Human), UniProt Q9UKS7) (Q9UKS7 whole entry): as the sequence (Q9UKS7 whole entry) above
Sequence of IKZF2 (Homo sapiens (Human), UniProt Q9UKS7) (Q96SW2 whole entry, further chain): as the sequence (Q96SW2 whole entry) above
Sequence of IKZF2 (Homo sapiens (Human), UniProt Q9UKS7) (Q16531 whole entry partner): as the sequence (Q16531 whole entry partner) above
Protocol: as §2

IKZF2 [5] = biological target: T1, IKZF2; experiment: IKZF2 HiBit Assay (HEK293T Flp-in-HiBiT cells); assay type: cell-based; conditions: HEK293T Flp-in-HiBiT cells, 6 hrs; for DC50: read-out: IKZF2 HiBit degradation DC50; for Dmax: HEK-293T, read-out: IKZF2 HiBit degradation Dmax
Procedure, shortened: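 HEK293T Flp-in cells carrying CRISPR-inserted N-terminal HiBiT tag at the endogenous IKZF2 locus were treated with an 11-point, 3-fold dilution from 1 mM (stock) for 6 hrs; final DMSO 0.1%. HiBiT luminescence was detected after lysis with LgBiT/substrate reagent. DMSO-normalized curves gave 50% degradation concentration and Dmax.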

IKZF1 = IKZF1 (Homo sapiens (Human), UniProt Q13422+Q96SW2); experiment: IKZF1 HiBit Assay (HEK293T Flp-in-HiBiT-IKZF1 stable cell line); assay type: cell-based; conditions: HEK293T Flp-in-HiBiT-IKZF1 cells, 6 hrs; for DC50: read-out: IKZF1 HiBit degradation DC50; for Dmax: HEK-293T, read-out: IKZF1 HiBit degradation Dmax
Sequence of IKZF1 (Q13422 whole entry): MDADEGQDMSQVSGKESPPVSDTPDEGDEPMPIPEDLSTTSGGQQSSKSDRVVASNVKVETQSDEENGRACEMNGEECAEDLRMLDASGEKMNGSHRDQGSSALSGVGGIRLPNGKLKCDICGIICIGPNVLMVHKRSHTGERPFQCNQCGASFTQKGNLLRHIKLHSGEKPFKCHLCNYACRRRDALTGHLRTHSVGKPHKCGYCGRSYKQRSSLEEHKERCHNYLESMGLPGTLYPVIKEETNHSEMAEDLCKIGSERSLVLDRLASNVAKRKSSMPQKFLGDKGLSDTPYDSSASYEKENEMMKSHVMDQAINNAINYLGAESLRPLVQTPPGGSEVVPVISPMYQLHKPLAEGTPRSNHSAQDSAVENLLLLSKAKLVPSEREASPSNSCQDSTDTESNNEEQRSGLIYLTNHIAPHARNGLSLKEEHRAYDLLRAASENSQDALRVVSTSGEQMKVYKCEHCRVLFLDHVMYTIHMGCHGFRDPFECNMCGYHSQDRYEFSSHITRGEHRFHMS
Sequence of IKZF1 (Q96SW2 whole entry): as the sequence (Q96SW2 whole entry) above
Sequence of IKZF1 (Q16531 whole entry partner): as the sequence (Q16531 whole entry partner) above
Procedure, shortened: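 HEK293T Flp-in cells with CRISPR-inserted N-terminal HiBiT tag treated 6 h with 11-point threefold dilutions (0.1% DMSO). Nano-Glo HiBiT lytic luminescence normalised to DMSO gave the 50%-degradation concentration; Dmax taken as the luminescence range from highest to lowest concentration.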

Sequence of GST-tagged wild-type human CRBN protein (Q96SW2 whole entry): as the sequence (Q96SW2 whole entry) above

Row | Structure (SMILES) | IC50 [1] | DC50 (IKZF2 [2]) | Dmax (IKZF2 [2]) | Dmax (IKZF2 [3]) | DC50 (IKZF2 [4]) | DC50 (IKZF2 [5]) | Dmax (IKZF2 [5]) | DC50 (IKZF1) | Dmax (IKZF1)
1 | O=C1CCC(N2Cc3c(ccc4c3OCC43CCN(Cc4ccc5ccoc5c4)CC3)C2=O)C(=O)N1 (stereo not drawn) [Compound A116, 3-(1′-(benzofuran-6-ylmethyl)-6-oxo-6,8-dihydro-2H,7H-spiro[furo[2,3-e]isoindole-3,4′-piperidin]-7-yl)piperidine-2,6-dione] | 0.1 to 1 µM | < 0.05 µM | 60 to 80% | – | – | – | – | – | –
2 | O=C1CCC(N2Cc3c(ccc4c3OCC43CCN(Cc4ccc5c(c4)C(=O)NC5)CC3)C2=O)C(=O)N1 (stereo not drawn) [Compound A122, 3-(6-oxo-1′-((3-oxoisoindolin-5-yl)methyl)-6,8-dihydro-2H,7H-spiro[furo[2,3-e]isoindole-3,4′-piperidin]-7-yl)piperidine-2,6-dione] | 0.1 to 1 µM | 0.05 to 0.2 µM | 60 to 80% | – | – | – | – | – | –
3 | O=C1CCC(N2Cc3c(ccc4c3OCC43CCN(Cc4cccc(-n5cncn5)c4)CC3)C2=O)C(=O)N1 (stereo not drawn) [Compound A124, 3-(1′-(3-(1H-1,2,4-triazol-1-yl)benzyl)-6-oxo-6,8-dihydro-2H,7H-spiro[furo[2,3-e]isoindole-3,4′-piperidin]-7-yl)piperidine-2,6-dione] | 0.1 to 1 µM | 0.2 to 0.5 µM | 40 to 60% | – | – | – | – | – | –
4 | O=C1CCC(N2Cc3c(ccc4c3OCC43CCN(Cc4cccc(-c5cnco5)c4)CC3)C2=O)C(=O)N1 (stereo not drawn) [Compound A125, 3-(1′-(3-(oxazol-5-yl)benzyl)-6-oxo-6,8-dihydro-2H,7H-spiro[furo[2,3-e]isoindole-3,4′-piperidin]-7-yl)piperidine-2,6-dione] | 0.1 to 1 µM | < 0.05 µM | 60 to 80% | – | – | – | – | – | –
5 | O=C1CCC(N2Cc3c(ccc4c3OCC43CCN(Cc4cccc(Cn5cccn5)c4)CC3)C2=O)C(=O)N1 (stereo not drawn) [Compound A126, 3-(1′-(3-((1H-pyrazol-1-yl)methyl)benzyl)-6-oxo-6,8-dihydro-2H,7H-spiro[furo[2,3-e]isoindole-3,4′-piperidin]-7-yl)piperidine-2,6-dione] | 0.1 to 1 µM | 0.2 to 0.5 µM | 40 to 60% | – | – | – | – | – | –
6 | O=C1CCC(N2Cc3c(ccc4c3OCC43CCN(Cc4cc(Br)cc5[nH]ncc45)CC3)C2=O)C(=O)N1 (stereo not drawn) [Compound A127, 3-(1′-((6-bromo-1H-indazol-4-yl)methyl)-6-oxo-6,8-dihydro-2H,7H-spiro[furo[2,3-e]isoindole-3,4′-piperidin]-7-yl)piperidine-2,6-dione] | 0.1 to 1 µM | < 0.05 µM | 40 to 60% | – | – | – | – | – | –
7 | O=C1CCC(N2Cc3c(ccc4c3OCC43CCN(Cc4cc(Cl)cc5[nH]ncc45)CC3)C2=O)C(=O)N1 (stereo not drawn) [Compound A128, 3-(1′-((6-chloro-1H-indazol-4-yl)methyl)-6-oxo-6,8-dihydro-2H,7H-spiro[furo[2,3-e]isoindole-3,4′-piperidin]-7-yl)piperidine-2,6-dione] | 0.1 to 1 µM | 0.05 to 0.2 µM | 40 to 60% | – | – | – | – | – | –
8 | O=C1CCC(N2Cc3c(ccc4c3OCC43CCN(Cc4ccc5cc[nH]c5c4)CC3)C2=O)C(=O)N1 (stereo not drawn) [Compound A129, 3-(1′-((1H-indol-6-yl)methyl)-6-oxo-6,8-dihydro-2H,7H-spiro[furo[2,3-e]isoindole-3,4′-piperidin]-7-yl)piperidine-2,6-dione] | 0.01 to 0.1 µM | < 0.05 µM | 60 to 80% | – | – | – | – | – | –
9 | Cn1ccc2ccc(CN3CCC4(CC3)COc3c4ccc4c3CN(C3CCC(=O)NC3=O)C4=O)cc21 (stereo not drawn) [Compound A130, 3-(1′-((1-methyl-1H-indol-6-yl)methyl)-6-oxo-6,8-dihydro-2H,7H-spiro[furo[2,3-e]isoindole-3,4′-piperidin]-7-yl)piperidine-2,6-dione] | 0.1 to 1 µM | < 0.05 µM | 60 to 80% | – | – | – | – | – | –
10 | O=C1CCC(N2Cc3c(ccc4c3OCC43CCN(Cc4ccc5c(c4)NC(=O)C5)CC3)C2=O)C(=O)N1 (stereo not drawn) [Compound A131, 3-(6-oxo-1′-((2-oxoindolin-6-yl)methyl)-6,8-dihydro-2H,7H-spiro[furo[2,3-e]isoindole-3,4′-piperidin]-7-yl)piperidine-2,6-dione] | 0.1 to 1 µM | 0.05 to 0.2 µM | 60 to 80% | – | – | – | – | – | –
11 | O=C1CCC(N2Cc3c(ccc4c3OCC43CCN(Cc4cccc(-c5cccnc5)c4)CC3)C2=O)C(=O)N1 (stereo not drawn) [Compound A132, 3-(6-oxo-1′-(3-(pyridin-3-yl)benzyl)-6,8-dihydro-2H,7H-spiro[furo[2,3-e]isoindole-3,4′-piperidin]-7-yl)piperidine-2,6-dione] | 0.1 to 1 µM | < 0.05 µM | 60 to 80% | – | – | – | – | – | –
12 | O=C1CCC(N2Cc3c(ccc4c3OCC43CCN(Cc4cccc(-c5ccncc5)c4)CC3)C2=O)C(=O)N1 (stereo not drawn) [Compound A133, 3-(6-oxo-1′-(3-(pyridin-4-yl)benzyl)-6,8-dihydro-2H,7H-spiro[furo[2,3-e]isoindole-3,4′-piperidin]-7-yl)piperidine-2,6-dione] | 0.1 to 1 µM | < 0.05 µM | 60 to 80% | – | – | – | – | – | –
13 | Cn1ccc(-c2cccc(CN3CCC4(CC3)COc3c4ccc4c3CN(C3CCC(=O)NC3=O)C4=O)c2)n1 (stereo not drawn) [Compound A134, 3-(1′-(3-(1-methyl-1H-pyrazol-3-yl)benzyl)-6-oxo-6,8-dihydro-2H,7H-spiro[furo[2,3-e]isoindole-3,4′-piperidin]-7-yl)piperidine-2,6-dione] | 0.1 to 1 µM | < 0.05 µM | 60 to 80% | – | – | – | – | – | –
14 | CCn1cc(-c2cccc(CN3CCC4(CC3)COc3c4ccc4c3CN(C3CCC(=O)NC3=O)C4=O)c2)cn1 (stereo not drawn) [Compound A145, 3-(1′-(3-(1-ethyl-1H-pyrazol-4-yl)benzyl)-6-oxo-6,8-dihydro-2H,7H-spiro[furo[2,3-e]isoindole-3,4′-piperidin]-7-yl)piperidine-2,6-dione] | 0.01 to 0.1 µM | < 0.05 µM | 60 to 80% | – | – | – | – | – | –
15 | O=C1CCC(N2Cc3c(ccc4c3OCC43CCN(Cc4cccc(-c5cc[nH]n5)c4)CC3)C2=O)C(=O)N1 (stereo not drawn) [Compound A160, 3-(1′-(3-(1H-pyrazol-3-yl)benzyl)-6-oxo-6,8-dihydro-2H,7H-spiro[furo[2,3-e]isoindole-3,4′-piperidin]-7-yl)piperidine-2,6-dione] | 0.01 to 0.1 µM | < 0.05 µM | 60 to 80% | – | – | – | – | – | –
16 | O=C1CCC(N2Cc3c(ccc4c3OCC43CCN(Cc4cccc(-c5cnn(C6COC6)c5)c4)CC3)C2=O)C(=O)N1 (stereo not drawn) [Compound A161, 3-(1′-(3-(1-(oxetan-3-yl)-1H-pyrazol-4-yl)benzyl)-6-oxo-6,8-dihydro-2H,7H-spiro[furo[2,3-e]isoindole-3,4′-piperidin]-7-yl)piperidine-2,6-dione] | 0.01 to 0.1 µM | < 0.05 µM | 60 to 80% | – | – | – | – | – | –
17 | Cn1cc(-c2cccc(CN3CCC4(CC3)COc3c4ccc4c3CN([C@H]3CCC(=O)NC3=O)C4=O)c2)cn1 [Compound A170, (S)-3-(1′-(3-(1-methyl-1H-pyrazol-4-yl)benzyl)-6-oxo-6,8-dihydro-2H,7H-spiro[furo[2,3-e]isoindole-3,4′-piperidin]-7-yl)piperidine-2,6-dione] | 0.1 to 1 µM | < 0.05 µM | 60 to 80% | – | – | – | – | – | –
18 | Cn1cc(-c2cccc(CN3CCC4(COc5c4ccc4c5CN(C5CCC(=O)NC5=O)C4=O)C(F)(F)C3)c2)cn1 (stereo not drawn) [Compound B26, 3-(3′,3′-difluoro-1′-(3-(1-methyl-1H-pyrazol-4-yl)benzyl)-6-oxo-6,8-dihydro-2H,7H-spiro[furo[2,3-e]isoindole-3,4′-piperidin]-7-yl)piperidine-2,6-dione] | – | – | – | > 60% | < 0.01 µM | 0.001 to 0.01 µM | > 80% | > 1 µM | < 20%
19 | N#Cc1ccc(-n2cc(CN3CCC4(COc5c4ccc4c5CN([C@H]5CCC(=O)NC5=O)C4=O)C(F)(F)C3)cn2)cc1 (stereo partly drawn) [Compound B27, 4-(4-((7-((S)-2,6-dioxopiperidin-3-yl)-3′,3′-difluoro-6-oxo-7,8-dihydro-2H,6H-spiro[furo[2,3-e]isoindole-3,4′-piperidin]-1′-yl)methyl)-1H-pyrazol-1-yl)benzonitrile] | – | – | – | < 40% | > 0.01 µM | 0.001 to 0.01 µM | 60 to 80% | > 1 µM | < 20%
